Tests used:
Format in all cases: cell-based
[1] = tested on: Aeromonas hydrophila; assay: MIC against Gram-negative bacteria: Aeromonas hydrophila; conditions: 5×10^5 CFU/mL
How it was run: (§1)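 Inocula prepared by growing LB cultures at 37° C to 0.5 McFarland, centrifuging at 4000×g, and resuspending in fresh medium. Final density 5×10^5 CFU/mL per well with two-fold dilutions of purified EGF domain protein; shaking incubation at 37° C.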

[2] = tested on: Enterobacter cloacae; assay: MIC against Gram-negative bacteria: Enterobacter cloacae; conditions: 5×10^5 CFU/mL
How it was run: as §1

[3] = tested on: Pseudomonas aeruginosa; assay: MIC against Gram-negative bacteria: Pseudomonas aeruginosa; conditions: 5×10^5 CFU/mL
How it was run: as §1

[4] = tested on: E. coli BL21; assay: MIC against Gram-negative bacteria: E. coli BL21; conditions: 5×10^5 CFU/mL
How it was run: as §1

[5] = tested on: E. coli DH5α; assay: Antibacterial activity: MIC and growth curve against E. coli DH5α in 96-well plate; conditions: minimal inhibitory concentration against E. coli DH5α; 96-well plate, 5×10^5 CFU/mL, 37° C., judged after 8 h
How it was run: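 MIC taken as lowest protein level with no bacterial growth, tracked by A600 every 30 min during 37 °C, 175 rpm culture. Two-fold protein series 50-12.5 μg/mL final, triplicate wells, against 5×10^5 CFU/mL of LB-washed mid-log cells.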

[6] = tested on: Serratia marcescens; assay: MIC against Gram-negative bacteria: Serratia marcescens; conditions: 5×10^5 CFU/mL
How it was run: as §1

[7] = tested on: Citrobacter diversus; assay: MIC against Gram-negative bacteria: Citrobacter diversus; conditions: 5×10^5 CFU/mL
How it was run: as §1

[8] = tested on: Moraxella catarrhalis; assay: MIC against Gram-negative bacteria: Moraxella catarrhalis; conditions: 5×10^5 CFU/mL
How it was run: as §1

[9] = tested on: Proteus mirabilis; assay: MIC against Gram-negative bacteria: Proteus mirabilis; conditions: 5×10^5 CFU/mL
How it was run: as §1

[10] = tested on: Klebsiella pneumonia; assay: MIC against Gram-negative bacteria: Klebsiella pneumonia; conditions: 5×10^5 CFU/mL
How it was run: as §1

[11] = tested on: Proteus vulgaris; assay: MIC against Gram-negative bacteria: Proteus vulgaris; conditions: 5×10^5 CFU/mL
How it was run: as §1

[12] = A. hydrophila, 10 h cultivation at 37° C.
[13] = E. cloacae, 10 h cultivation at 37° C.
[14] = P. aeruginosa, 10 h cultivation at 37° C.
[15] = S. marcescens, 10 h cultivation at 37° C.
[16] = C. diversus, 10 h cultivation at 37° C.
[17] = M. catarrhalis, 10 h cultivation at 37° C.
[18] = P. mirabilis, 10 h cultivation at 37° C.
[19] = K. pneumonia, 10 h cultivation at 37° C.
[20] = P. vulgaris, 10 h cultivation at 37° C.
[21] = Aeromonas hydrophila, 96-well plate, 37° C., 10 h
[22] = Enterobacter cloacae, 96-well plate, 37° C., 10 h
[23] = Pseudomonas aeruginosa, 96-well plate, 37° C., 10 h
[24] = Serratia marcescens, 96-well plate, 37° C., 10 h
[25] = Citrobacter diversus, 96-well plate, 37° C., 10 h
[26] = Moraxella catarrhalis, 96-well plate, 37° C., 10 h
[27] = Proteus mirabilis, 96-well plate, 37° C., 10 h
[28] = Klebsiella pneumonia, 96-well plate, 37° C., 10 h
[29] = Proteus vulgaris, 96-well plate, 37° C., 10 h

## PRT662 (RIYFCQIPCLNGGRCIGRDECWCPANSTGKFCH; listed as Homo sapiens)
[1]; 96-well plate, 37° C., 10 h
  MIC A. hydrophila: 12.5 µg/mL
[2]; 96-well plate, 37° C., 10 h
  MIC E. cloacae: 25 µg/mL
[3]; 96-well plate, 37° C., 10 h
  MIC P. aeruginosa: 25 µg/mL
[4]; 96-well plate, 37° C., 10 h
  MIC E. coli BL21: 12.5 µg/mL
[5]
  MIC: 25 µg/mL
[6]; 96-well plate, 37° C., 10 h
  MIC S. marcescens: 50 µg/mL
[7]; 96-well plate, 37° C., 10 h
  MIC C. diversus: 25 µg/mL
[8]; 96-well plate, 37° C., 10 h
  MIC M. catarrhalis: 25 µg/mL
[9]; 96-well plate, 37° C., 10 h
  MIC P. mirabilis: 50 µg/mL
[10]; 96-well plate, 37° C., 10 h
  MIC K. pneumonia: 50 µg/mL
[11]; 96-well plate, 37° C., 10 h
  MIC P. vulgaris: 12.5 µg/mL

## PRT1445 (PCLNDCGPYGQCLLLRRHSYLYASCSCKAGWRGWSCT; listed as Homo sapiens)
[1]; Aeromonas hydrophila, 10 h cultivation at 37° C.
  MIC against A. hydrophila: 50 µg/mL
[2]; Enterobacter cloacae, 10 h cultivation at 37° C.
  MIC against E. cloacae: 50 µg/mL
[3]; Pseudomonas aeruginosa, 10 h cultivation at 37° C.
  MIC against P. aeruginosa: 50 µg/mL
[4]; 10 h cultivation at 37° C.
  MIC against E. coli BL21: 12.5 µg/mL
[5]
  MIC: 50 µg/mL
[6]; Serratia marcescens, 10 h cultivation at 37° C.
  MIC against S. marcescens: 50 µg/mL
[7]; Citrobacter diversus, 10 h cultivation at 37° C.
  MIC against C. diversus: 25 µg/mL
[8]; Moraxella catarrhalis, 10 h cultivation at 37° C.
  MIC against M. catarrhalis: 25 µg/mL
[9]; Proteus mirabilis, 10 h cultivation at 37° C.
  MIC against P. mirabilis: 50 µg/mL
[10]; Klebsiella pneumonia, 10 h cultivation at 37° C.
  MIC against K. pneumonia: 50 µg/mL
[11]; Proteus vulgaris, 10 h cultivation at 37° C.
  MIC against P. vulgaris: 25 µg/mL

## PRT768 (AIDYCSFGNHSCQHECVSTPGGPRCHCREGHDLQPDGRSCQ; listed as Homo sapiens)
[1]; [12]
  MIC (μg/mL) A. hydrophila: 12.5 µg/mL
[2]; [13]
  MIC (μg/mL) E. cloacae: 50 µg/mL
[3]; [14]
  MIC (μg/mL) P. aeruginosa: 25 µg/mL
[4]; 10 h cultivation at 37° C.
  MIC (μg/mL) E. coli BL21: 50 µg/mL
[5]
  MIC: 12.5 µg/mL
[6]; [15]
  MIC (μg/mL) S. marcescens: 12.5 µg/mL
[7]; [16]
  MIC (μg/mL) C. diversus: 50 µg/mL
[8]; [17]
  MIC (μg/mL) M. catarrhalis: 25 µg/mL
[9]; [18]
  MIC (μg/mL) P. mirabilis: 12.5 µg/mL
[10]; [19]
  MIC (μg/mL) K. pneumonia: 12.5 µg/mL
[11]; [20]
  MIC (μg/mL) P. vulgaris: 25 µg/mL

## PRT652 (DLDECAFPGVCPSGVCTNTAGSFSCKDCDGGYRPSPLGDSCE; listed as Homo sapiens)
[1]; 96-well plate, 37° C., 10 h
  MIC A. hydrophila: 25 µg/mL
[2]; 96-well plate, 37° C., 10 h
  MIC E. cloacae: 12.5 µg/mL
[3]; 96-well plate, 37° C., 10 h
  MIC P. aeruginosa: 50 µg/mL
[4]; 96-well plate, 37° C., 10 h
  MIC E. coli BL21: 25 µg/mL
[5]
  MIC: 12.5 µg/mL
[6]; 96-well plate, 37° C., 10 h
  MIC S. marcescens: 50 µg/mL
[7]; 96-well plate, 37° C., 10 h
  MIC C. diversus: 50 µg/mL
[8]; 96-well plate, 37° C., 10 h
  MIC M. catarrhalis: 25 µg/mL
[9]; 96-well plate, 37° C., 10 h
  MIC P. mirabilis: 12.5 µg/mL
[10]; 96-well plate, 37° C., 10 h
  MIC K. pneumonia: 25 µg/mL
[11]; 96-well plate, 37° C., 10 h
  MIC P. vulgaris: 25 µg/mL

## PRT1212 (DIDECSGNPCLHGALCENTHGSYHCNCSHEYRGRHCE; listed as Homo sapiens)
[1]; [21]
  MIC against A. hydrophila: 25 µg/mL
[2]; [22]
  MIC against E. cloacae: 25 µg/mL
[3]; [23]
  MIC against P. aeruginosa: 12.5 µg/mL
[4]; 96-well plate, 37° C., 10 h
  MIC against E. coli BL21: 25 µg/mL
[5]
  MIC: 50 µg/mL
[6]; [24]
  MIC against S. marcescens: 12.5 µg/mL
[7]; [25]
  MIC against C. diversus: 12.5 µg/mL
[8]; [26]
  MIC against M. catarrhalis: 25 µg/mL
[9]; [27]
  MIC against P. mirabilis: 50 µg/mL
[10]; [28]
  MIC against K. pneumonia: 50 µg/mL
[11]; [29]
  MIC against P. vulgaris: 25 µg/mL

## PRT1494 (KALCTPRCMNGGLCVTPGFCICPPGFYGVNCD; listed as Homo sapiens)
[1]; [21]
  MIC (μg/mL) A. hydrophila: 12.5 µg/mL
[2]; [22]
  MIC (μg/mL) E. cloacae: 25 µg/mL
[3]; [23]
  MIC (μg/mL) P. aeruginosa: 25 µg/mL
[4]; 96-well plate, 37° C., 10 h
  MIC (μg/mL) E. coli BL21: 12.5 µg/mL
[5]
  MIC: 25 µg/mL
[6]; [24]
  MIC (μg/mL) S. marcescens: 12.5 µg/mL
[7]; [25]
  MIC (μg/mL) C. diversus: 25 µg/mL
[8]; [26]
  MIC (μg/mL) M. catarrhalis: 25 µg/mL
[9]; [27]
  MIC (μg/mL) P. mirabilis: 12.5 µg/mL
[10]; [28]
  MIC (μg/mL) K. pneumonia: 12.5 µg/mL
[11]; [29]
  MIC (μg/mL) P. vulgaris: 12.5 µg/mL

## PRT154 (DVDECSLAEKTCVRKNENCYNTPGSYVCVCPDGFEETEDACV; listed as Homo sapiens)
[1]; [12]
  MIC (μg/mL) A. hydrophila: 12.5 µg/mL
[2]; [13]
  MIC (μg/mL) E. cloacae: 50 µg/mL
[3]; [14]
  MIC (μg/mL) P. aeruginosa: 12.5 µg/mL
[4]; 10 h cultivation at 37° C.
  MIC (μg/mL) E. coli BL21: 50 µg/mL
[5]
  MIC: 12.5 µg/mL
[6]; [15]
  MIC (μg/mL) S. marcescens: 25 µg/mL
[7]; [16]
  MIC (μg/mL) C. diversus: 25 µg/mL
[8]; [17]
  MIC (μg/mL) M. catarrhalis: 50 µg/mL
[9]; [18]
  MIC (μg/mL) P. mirabilis: 25 µg/mL
[10]; [19]
  MIC (μg/mL) K. pneumonia: 25 µg/mL
[11]; [20]
  MIC (μg/mL) P. vulgaris: 12.5 µg/mL
